Where two headings read alike, the source gives them in different places.
Key:
[1] = tested on: pericytes stimulated by PACAP; assay: inhibition of PACAP-induced relaxation of pericytes on silicone substrate; type: cell-based
Method: The contractile state of the pericyte was quantified by counting the number of wrinkles (N) and the length of each wrinkle (l) in the thin shin sheet of silicone. From these observations an index of contractility (Ci) was developed from […]. An experiment to determine the effect of vasoactive agents was conducted by first quantifying Ci with the pericyte in physiological buffer (“control”). The Ci was quantified after exposing the pericytes to a vasoactive agent and allowing the pericyte to reach a steady-state level of contractility, which usually took 10 minutes. The effect of the vasoactive agent was determined by dividing by the Ci in the control condition and multiplying by 100 to obtain an index of effect (Ie,%) that was either less than 100 (pericyte relaxed relative to control) or greater than 100 (pericyte contracted relative to control). As a further control, incubations with buffer alone for the complete duration of exposure to each vasoactive agent were performed in conjunction with each experiment.
The present inventors further identified protein kinase A (PKA) as being affected by the increase in cAMP following the binding of PACAP or VIP. For this purpose cells were grown on silicone substrate and contacted by a 10^−8 M concentration of PACAP.
The present inventors have also shown that the relaxing effect of PACAP on pericyte contraction was in part mediated by the intracellular pathway that mobilises Ca^2+ from intracellular stores.

[2] = tested on: retinal pericytes; assay: cells; settings: for effect on contractile state of retinal pericytes (in words): pericytes on silicone substrate, 10 minutes per concentration
Method: A small volume of dimethylpolysiloxane (Sigma Chemical Co.) of either 60,000 cps (DMPS-60M) or 12,500 cps (DMPS-12M) viscosity was applied to 12 mm diameter glass cover slips. In some cases an intermediate viscosity dimethylpolysiloxane (30,000 cps) was prepared by blending 54% by weight of 60,000 cps dimethylpolysiloxane with 46% by weight of 12,500 cps dimethylpolysiloxane. The coated cover-slip was heated for 2 seconds using a Bunsen burner to induce cross-linking of the surface of the dimethylpolysiloxane and formation of a thin silicone rubber sheet bonded to the cover slip. After preparation, the cover slips were placed in 24-well tissue culture dishes and sterilised by UV irradiation overnight.
Pericytes from primary cultures (first passage) were plated on the cover slips in DMEM supplemented with 10% FCS.
The response of the cells to the antagonists was evaluated using phase contrast microscopy at room temperature. […] Cells were identified as relaxed when the tension wrinkles associated with them diminished in size, and completely relaxed when the wrinkles disappeared. Conversely, a pericyte contracted when there was an increase in the number and length of the wrinkles associated with the pericyte. During each experiment, an image of the pericytes was captured (videocamera and framegrabber) by the computer every minute. The wrinkles were analysed after the experiment from these captured images.
In each of the experiments, the length of each clearly discerned wrinkle associated with the cell was measured 3 times, and the average of the lengths was tabulated. The two ends of a wrinkle were determined by the contrast difference from the background on the picture. The contrast settings on the computer, videocamera or framegrabber were set at the commencement of an experiment and then not changed during the course of an experiment. Similarly, the focus of the microscope was set at the commencement of the experiment and then not changed during the course of an experiment. The depth (level) of solution in the bath was also kept constant, by aspirating and injecting each new solution at the same rate. Thus the only change in the image of the wrinkle (contrast, length) was due to the tension induced in the silicone substrate by the pericyte. The wrinkles during each experimental condition were counted from the photographs with help of a Zeiss videoplan.
The contractile state of the pericyte was quantified by counting the number of wrinkles (N) and the length of each wrinkle (l) in the thin shin sheet of silicone. From these observations an index of contractility (Ci) was developed from […]. An experiment to determine the effect of vasoactive agents was conducted by first quantifying Ci with the pericyte in physiological buffer (“control”). […] As a further control, incubations with buffer alone for the complete duration of exposure to each vasoactive agent were performed in conjunction with each experiment.
For this purpose cells were grown on silicone rubber. On the day of experiment the cells were rinsed with HEPES-buffered solution for 20 min at room temperature. Then the pericytes were exposed to norepinephrine (N5785, Sigma, USA) at different concentrations (10^−6M, 10^−5M, 10^−4 M) by a rapid exchange of the entire solution. The pericytes were exposed to each new drug concentration for a total of 10 minutes, with an image of the pericytes taken every 1 min.

Nc1ncnc2c1ncn2[C@@H]1O[C@@H]2COP(O)(=S)O[C@H]2[C@H]1O (single isomer, unassigned) [Rp-cAMPS, adenosine 3′,5′-cyclic monophosphothioate, Rp-isomer] showed an EC50 ([1]; 10^−8 M PACAP, 10, 30, 100 μM added sequentially, 10 minutes each, FIG. 6, read-out: EC50 of inhibition of the relaxing effect of PACAP) of 26 µM.
For O=S(=O)(NCCNCC=Cc1ccc(Br)cc1)c1cccc2cnccc12 [H-89, N-(2-[p-bromocinnamylamino]-ethyl)-5-isoquinolinesulfonamid-e], the “effect on the relaxing effect of PACAP” value ([1]; 10^−8 M PACAP, inhibitor at 0.3 μM) was “inhibited the relaxing effect”.
With O=C(O)c1ccccc1Nc1ccccc1 [N-phenylanthranilic acid] the “effect on contractile state of retinal pericytes (in words)” value (“effect on contractile state” for short) [2] was “can influence the contractile state of retinal pericytes”.
In the case of NC[C@H](O)c1ccc(O)c(O)c1 [NE, norepinephrine], the “effect on contractile state” value [2] is reported as “contracting in a dose-dependent manner”, the EC50 ([2]; read-out: EC50 of pericyte contraction of silicone substrate) is reported as 8 µM and the “concentration causing contraction of pericytes” value ([2]; retinal pericytes, FIG. 3) is reported as “greater than 10^−6 M”. The “concentration giving maximum enhancement of contractile state of the pericytes” value ([2]; retinal pericytes, FIG. 3) was 10^−4 M.
For C[C@@H](C(=O)O)c1ccc(-c2ccccc2)c(F)c1 [R-flurbiprofen, flurbiprofen], the “effect on contractile state” value [2] was “can influence the contractile state of retinal pericytes”.
For COc1ccc2c(c1)CC[C@@H]1[C@@H]2CC[C@]2(C)[C@@H](NCCCCCCN3C(=O)C=CC3=O)CC[C@@H]12 [U73122, 1-[6-([(17β)-3-Methoxyestra-1,3,5(10)-trien-17-yl]amino)hexyl]-1H-py-rrole-2,2-dione], the “effect on PACAP-induced relaxation of pericytes” value ([1]; inhibitor at 10 μM) was “antagonist of the PACAP-induced relaxation of pericytes”.
CC[C@H](C)[C@H](NC(=O)[C@H](CO)NC(=O)[C@H](CC(N)=O)NC(=O)[C@H](CC(C)C)NC(=O)[C@H](Cc1ccc(O)cc1)NC(=O)[C@H](CCCCN)NC(=O)[C@H](CCCCN)NC(=O)[C@@H](NC(=O)[C@H](C)NC(=O)[C@H](CCSC)NC(=O)[C@H](CCC(N)=O)NC(=O)[C@H](CCCCN)NC(=O)[C@H](CCCNC(=N)N)NC(=O)[C@H](CC(C)C)NC(=O)[C@H](CCCNC(=N)N)NC(=O)[C@@H](NC(=O)[C@H](Cc1ccc(O)cc1)NC(=O)[C@H](CC(N)=O)NC(=O)[C@H](CC(=O)O)NC(=O)[C@@H](NC(=O)[C@H](Cc1ccccc1)NC(=O)[C@@H](NC(=O)[C@H](C)NC(=O)[C@H](CC(=O)O)NC(=O)[C@H](CO)NC(=O)[C@@H](N)Cc1c[nH]cn1)C(C)C)[C@@H](C)O)[C@@H](C)O)C(C)C)C(=O)N[C@@H](CC(C)C)C(=O)N[C@@H](CC(N)=O)C(N)=O [VIP, vasoactive intestinal polypeptide] gave an EC50 ([2]; read-out: EC50 concentration, effect on contractility of pericytes (relaxation), contractility index below 100 = relaxed, data averaged from cells, FIGS. 4, 5) of 0.048 µM.
O=C(O)c1ccccc1Nc1cccc(C(F)(F)F)c1 [flufenamic acid] was tested, and the “effect on contractile state” value [2] was “can influence the contractile state of retinal pericytes”.

Reference: patent publication US20110206612A1, “NOVEL SCREENS TO IDENTIFY AGENTS THAT MODULATE RETINAL BLOOD VESSEL FUNCTION AND PERICYTE FUNCTION AND DIAGNOSTIC AND THERAPEUTIC APPLICATION THEREFOR” (UNIVERSITY OF TECHNOLOGY, SYDNEY, priority 2002, published 2011)
